Measurements as given in publication PMC9603561, “Anticoagulants as Potential SARS-CoV-2 M^pro Inhibitors for COVID-19 Patients: In Vitro, Molecular Docking, Molecular Dynamics, DFT, and SAR Studies” (International Journal of Molecular Sciences, 2022).
Where two headings read alike, the source gives them in different places.

Experiments:
SARS-CoV-2 M^pro enzyme = target: T1, SARS-CoV-2 M^pro enzyme (Severe acute respiratory syndrome coronavirus 2, UniProt P0DTD1); assay: SARS-CoV-2 M^pro inhibitory assay (3CL Protease Assay Kit); type: biochemical
T1 construct: The 3CL Protease Assay Kit was used; purchased

MTT cytotoxicity assay = type: cell-based; details: African green monkey
Method: (§1) Half of the maximal cytotoxic concentrations (CC50) were assessed to obtain the exact concentration of a compound that caused a rupture to 50% of cells after being treated with variant doses from the compounds to calculate the safety index (SI) = CC50/IC50 for each compound. The assay was performed through stock solution preparation of the target compounds in DMSO/ddH2O (for those in powder form). However, those in solution form were used directly. The prepared solutions were further diluted with DMEM by attaining the working solutions. […] Shortly, 96 well-plates were utilized for cell seeding and incubated at 37 °C in 5% CO2 for 24 h afterward. After one day, the incubated cells were subjected to different concentrations in triplicates of the investigated compounds. After another 24 h, the supernatant was dismissed, and sterile 1x phosphate buffer saline (PBS) was used for cell monolayer washing in triplicates. Thus, 20 µL of 5 mg/mL stock solution was added to each well and then incubated at 37 °C, followed by a medium aspiration for 4 h. So, the formed formazan crystals were dissolved by 200 µL isopropyl alcohol or DMSO. The formazan solution absorbance was measured at 540 nm (λmax) using a multi-well plate reader, while the reference wavelength was 620 nm. The CC50 of each target compound was measured employing nonlinear regression analysis of GraphPad Prism software.

[1] = tested on: SARS-CoV-2 (hCoV-19/Egypt/NRC-03/2020); assay: Crystal violet assay, SARS-CoV-2 inhibitory assay (cell-based); details: Vero E6 cells, crystal violet CPE readout, read-out: Inhibitory Concentration (IC50) against SARS-CoV-2
Vero E6 cells = assay: MTT cytotoxicity assay; type: cell-based; details: Vero E6 cells, MTT, 24 h treatment; read-out: Cytotoxicity Concentration (CC50)
Method: as §1

[2] = fluorogenic substrate, triplicate
[3] = Severe acute respiratory syndrome coronavirus 2, Vero C1008, 72 h

Compound | IC50 (SARS-CoV-2 M^pro enzyme; [2]) [µM] | CC50 at 24 h (MTT cytotoxicity assay; Vero E6 cells, MTT, 24 h treatment, read-out: Cytotoxicity Concentration (CC50)) [µM] | IC50 [1, 3] [µM] | IC50 ([1]; 72 h) [µM] | CC50 at 24 h (MTT cytotoxicity assay) [µM] | IC50 (SARS-CoV-2 M^pro enzyme; read-out: SARS-CoV-2 M^pro IC50, fluorogenic substrate, triplicate) [µM] | CC50 (Vero E6 cells) [µM]
[H]/N=C(/N)c1ccc(NCc2nc3cc(C(=O)N(CCC(=O)O)c4ccccn4)ccc3n2C)cc1 [Dabigatran, dabigatran] | 10.6 | 142 | 9.45 | 9.4 |  |  | 
CO[C@H]1O[C@H](COS(=O)(=O)O)[C@@H](O[C@@H]2O[C@@H](C(=O)O)[C@@H](O[C@H]3O[C@H](COS(=O)(=O)O)[C@@H](O[C@@H]4O[C@H](C(=O)O)[C@@H](O[C@H]5O[C@H](COS(=O)(=O)O)[C@@H](O)[C@H](O)[C@H]5NS(=O)(=O)O)[C@H](O)[C@H]4O)[C@H](OS(=O)(=O)O)[C@H]3NS(=O)(=O)O)[C@H](O)[C@H]2OS(=O)(=O)O)[C@H](O)[C@H]1NS(=O)(=O)O [Fondaparinux sodium, fondaparinux sodium] | 2.36 |  | 8.69 | 8.6 | 152 |  | 
CCCSc1nc(N[C@@H]2C[C@H]2c2ccc(F)c(F)c2)c2nnn([C@@H]3C[C@H](OCCO)[C@@H](O)[C@H]3O)c2n1 [Ticagrelor, ticagrelor] | 47.5 |  | 5.6 |  | 142 |  | 
CCC[C@@]1(CCc2ccccc2)CC(O)=C([C@H](CC)c2cccc(NS(=O)(=O)c3ccc(C(F)(F)F)cn3)c2)C(=O)O1 [tipranavir] | 7.38 |  |  |  |  |  | 
heparin |  |  |  | 106 |  | 153 | 262
